# Measured values published in patent US20260076935A1, “PREVENTION AND TREATMENT OF CONDITIONS USING ETHYL PYRUVATE” (The Trustees of Columbia University in the City of New York, priority 2023, published 2026).
# Experiments:
# [1] = system: early onset Lmx1b developmental glaucoma model; test: Glaucomatous optic nerve damage (neurodegeneration) in Lmx1b glaucoma mice; type: in vivo; conditions: FIG. 8
# [2] = system: early onset Lmx1b developmental glaucoma model; test: Ocular developmental abnormalities (iridocorneal adhesions, anterior chamber depth) in Lmx1b glaucoma mice; type: in vivo
# Source text: As shown in FIGS. 4-6, in addition to preventing or treating high IOP, treatment of mice harboring an early onset Lmx1b developmental glaucoma model with ethyl pyruvate, alone or in combination with a metabolite boosting agent, unexpectedly rescued ocular developmental abnormalities. […] Ethyl pyruvate's ability to treat or prevent IOP elevation ocular developmental abnormalities was surprising at least because such effects have not been observed with sodium pyruvate treatments.
# [3] = system: early-onset Lmx1b developmental glaucoma model; test: Intraocular pressure (IOP) in mice with early-onset Lmx1b developmental glaucoma model; type: in vivo
# Source text: Ethyl pyruvate's ability to treat or prevent IOP elevation ocular developmental abnormalities was surprising at least because such effects have not been observed with sodium pyruvate treatments.
# [4] = multiple mammalian species, including humans, mice, rats, and horses; cited from earlier work
# [5] = Long-term dosing of mice, adverse effects; type: in vivo; conditions: mice dosed for at least up to nine months
# Experimental: Ethyl pyruvate was sourced from Sigma-Aldrich. […] See, e.g., Clinical Trial Identifier NCT00107666 (human cardiac trial, dosing ethyl pyruvate at 7.5 g (90 mg/kg) intravenously, every six hours for two days); Xiujing Sun et al., Ethyl Pyruvate Supplemented in Drinking Water Ameliorates Experimental Nonalcoholic Steatohepatitis, 137 Biomedical Pharmacotherapy 111392 (2021); Leilei Mao et al., Ethyl Pyruvate Improves White Matter Remodeling in Rats After Traumatic Brain Injury, 27 CNS Neuroscience & Therapeutics 113 (2021); C. C. Jacobs et al, Ethyl Pyruvate Diminishes the Inflammatory Response to Lipopolysaccharide Infusion in Horses, 45 Equine Veterinary J. 333 (2013). […] Furthermore, ethyl pyruvate is an FDA-approved food additive and flavoring agent.
# [6] = prior clinical studies; cited from earlier work
# [7] = system: age-onset mouse glaucoma models; test: IOP in age-onset mouse glaucoma models; type: in vivo
# Experimental: In some embodiments, one or more of these factors may lead to glaucoma. In some embodiments, the mouse model is a Lmx1b mouse model. This is unexpected at least because sodium pyruvate had no effect on IOP in age-onset mouse glaucoma models, or in the early-onset Lmx1b developmental glaucoma model. For example, treatment of Lmx1b mice with about 500 mg/kg/day of sodium pyruvate had no effect on IOP at 2, 3, and 4-months post-treatment. This is also unexpected at least because calcium pyruvate had no effect on IOP in humans in prior clinical studies.
# [8] = about 500 mg/kg/day, 2, 3, and 4-months post-treatment, Lmx1b mice
molecule,measurement,setting,value
CCOC(=O)C(C)=O [ethyl pyruvate],glaucomatous optic nerve damage (neurodegeneration),"[1]; ethyl pyruvate 2000 mg/kg/day, mice aged to six months",lessening of glaucomatous optic nerve damage
same,anterior chamber deepening,[2]; FIGS. 5-6,significant effect in preventing or reducing anterior chamber deepening
same,incidence and severity of iridocorneal adhesions,"[2]; ethyl pyruvate 2000 mg/kg/day, FIG. 4",less incidence and severity
same,IOP,"[3]; ethyl pyruvate 500 mg/kg/day, out to two months of age, FIG. 1",lessening of IOP
same,IOP,"[3]; ethyl pyruvate 2000 mg/kg/day, FIG. 2",lessening of IOP
same,safety and tolerability,[4],safe and well-tolerated
same,adverse effects,[5],without adverse effects
calcium pyruvate,IOP in humans,[6],no effect
NC(=O)c1cccnc1 [nicotinamide],glaucomatous optic nerve damage,[1]; nicotinamide 550 mg/kg/day,protective from glaucomatous optic nerve damage
CC(=O)C(=O)[O-].[Na+] [sodium pyruvate],severity of anterior eye developmental abnormalities,[2]; [8],no effect
same,severity of anterior eye developmental abnormalities,[2]; sodium pyruvate 500 mg/kg/day,no change
same,IOP,[3]; [8],no effect
same,IOP elevation,"[3]; sodium pyruvate 500 mg/kg/day, after two months, FIG. 7",no effect
same,IOP compared to untreated,"[3]; sodium pyruvate 500 mg/kg/day, at three and four months",no changes were observed
same,IOP,[7],no effect
